According to publication PMC13107341, “Quinoline/thiazole compounds as selective acetylcholinesterase inhibitors: synthesis and biological assessment” (RSC Medicinal Chemistry, 2026):

Experiments:
AChE = AChE (Homo sapiens, UniProt P22303); test: Anticholinesterase enzyme activity, modified Ellman method (AChE); format: biochemical
Method: Anticholinesterase enzyme activity studies were conducted to evaluate the inhibitory potential of the synthesized compounds (Table 2).
(§1) The anticholinesterase enzyme activities of the compounds were investigated using the modified Ellman method. The details of this method have been presented in detail in our previous studies.[25–27]

BChE = BChE (Homo sapiens, UniProt P06276); test: Anticholinesterase enzyme activity, modified Ellman method (BChE); format: biochemical
Method: Anticholinesterase enzyme activity studies were conducted to evaluate the inhibitory potential of the synthesized compounds (Table 2). Upon analysis of the results, compounds 3h and 3i stood out due to their notable IC50 values.
as §1

MTT cytotoxicity assay = conditions: mouse
Method: Both the activity of a compound and its lack of cytotoxicity are criteria that determine whether it can be a potential drug candidate. To this end, the cytotoxic potential of the compounds was investigated on healthy fibroblast cells.
To spectroscopically determine the effects of the synthesized compounds on cell viability, MTT analysis was performed. This method is based on the fact that metabolically active living cells reduce the colorless MTT (3-(4,5-dimethylthiazol-2-yl)-2,5-diphenyltetrazolium) salt, converting it into purple formazan crystals. In the analysis, healthy NIH3T3 cell lines were seeded into 96-well plates at a cell density of […] and incubated with the compounds for 24 hours.[28–33]

Sequence of AChE (P22303 32-614): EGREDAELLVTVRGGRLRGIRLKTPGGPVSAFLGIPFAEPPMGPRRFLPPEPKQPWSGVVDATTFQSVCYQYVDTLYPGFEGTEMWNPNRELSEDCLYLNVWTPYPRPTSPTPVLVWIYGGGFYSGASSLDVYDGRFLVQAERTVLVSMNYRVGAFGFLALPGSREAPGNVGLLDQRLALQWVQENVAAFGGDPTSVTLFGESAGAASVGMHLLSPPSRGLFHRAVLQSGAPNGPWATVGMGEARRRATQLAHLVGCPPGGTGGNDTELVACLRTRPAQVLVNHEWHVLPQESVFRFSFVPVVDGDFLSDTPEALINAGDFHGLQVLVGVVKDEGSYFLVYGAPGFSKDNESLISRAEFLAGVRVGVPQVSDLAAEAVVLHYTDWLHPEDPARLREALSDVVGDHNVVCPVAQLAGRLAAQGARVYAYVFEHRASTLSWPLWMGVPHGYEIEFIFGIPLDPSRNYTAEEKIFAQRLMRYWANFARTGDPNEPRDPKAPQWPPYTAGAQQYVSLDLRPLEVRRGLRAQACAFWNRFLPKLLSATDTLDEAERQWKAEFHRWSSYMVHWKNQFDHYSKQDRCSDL
Sequence of BChE (P06276 29-602, species assumed): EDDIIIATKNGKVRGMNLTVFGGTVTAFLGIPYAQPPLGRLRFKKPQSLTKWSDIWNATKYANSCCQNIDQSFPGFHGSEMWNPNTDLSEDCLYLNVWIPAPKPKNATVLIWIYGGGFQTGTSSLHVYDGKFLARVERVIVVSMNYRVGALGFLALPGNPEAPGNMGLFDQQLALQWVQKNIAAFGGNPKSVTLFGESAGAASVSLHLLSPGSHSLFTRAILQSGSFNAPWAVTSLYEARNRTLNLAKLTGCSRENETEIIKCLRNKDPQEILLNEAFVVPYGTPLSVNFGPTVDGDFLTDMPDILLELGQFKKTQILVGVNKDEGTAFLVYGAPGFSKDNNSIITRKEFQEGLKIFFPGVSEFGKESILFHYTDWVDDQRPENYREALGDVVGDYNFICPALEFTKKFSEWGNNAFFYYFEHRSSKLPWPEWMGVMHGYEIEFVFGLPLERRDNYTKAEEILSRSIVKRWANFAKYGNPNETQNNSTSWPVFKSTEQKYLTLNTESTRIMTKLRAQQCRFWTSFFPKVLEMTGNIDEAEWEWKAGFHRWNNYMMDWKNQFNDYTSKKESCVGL

CCn1c(-c2ccc(F)cc2)csc1=NN=Cc1ccnc2ccccc12 [3e, 3-Ethyl-4-(4-fluorophenyl)-2-((quinolin-4-ylmethylene)hydrazineylidene)-2,3-dihydrothiazole] showed an IC50 (AChE) of 1.87 ± 0.678 µM and an IC50 (BChE) of over 10 µM.
In the case of COc1cccc2c1C(=O)c1c(O)c3c(c(O)c1C2=O)C[C@@](O)(C(=O)CO)C[C@@H]3O[C@H]1C[C@H](N)[C@H](O)[C@H](C)O1 [Doxorubicin, reference compound], the IC50 at 24 h (MTT cytotoxicity assay) is reported as over 1000 µM.
In the case of CCn1c(-c2ccc([N+](=O)[O-])cc2)csc1=NN=Cc1ccnc2ccccc12 [3d, 3-Ethyl-4-(4-nitrophenyl)-2-((quinolin-4-ylmethylene)hydrazineylidene)-2,3-dihydrothiazole], the IC50 (AChE) is reported as over 10 µM and the IC50 (BChE) is reported as over 10 µM.
Molecule CCn1c(-c2ccc(O)c(O)c2)csc1=NN=Cc1ccnc2ccccc12 [3i, 4-(3-Ethyl-2-((quinolin-4-ylmethylene)hydrazineylidene)-2,3-dihydrothiazol-4-yl)benzene-1,2-diol] has an IC50 (AChE) of 0.027 ± 0.002 µM, an IC50 (BChE) of over 10 µM and an IC50 at 24 h (MTT cytotoxicity assay) of 19.8 ± 0.627 µM.
For CCn1c(-c2ccc(Cl)c(Cl)c2)csc1=NN=Cc1ccnc2ccccc12 [3h, 4-(3,4-Dichlorophenyl)-3-ethyl-2-((quinolin-4-ylmethylene)hydrazineylidene)-2,3-dihydrothiazole], the IC50 (AChE) was 0.107 ± 0.07 µM, the IC50 (BChE) was over 10 µM and the IC50 at 24 h (MTT cytotoxicity assay) was 36.1 ± 0.968 µM.
Molecule CCn1c(-c2ccc(C)cc2)csc1=NN=Cc1ccnc2ccccc12 [3b, 3-Ethyl-2-((quinolin-4-ylmethylene)hydrazineylidene)-4-(p-tolyl)-2,3-dihydrothiazole] has an IC50 (AChE) of over 10 µM and an IC50 (BChE) of over 10 µM.
In the case of CCn1c(-c2ccccc2)csc1=NN=Cc1ccnc2ccccc12 [3a, 3-Ethyl-4-phenyl-2-((quinolin-4-ylmethylene)hydrazineylidene)-2,3-dihydrothiazole], the IC50 (AChE) is reported as over 10 µM and the IC50 (BChE) is reported as over 10 µM.
Molecule CCn1c(-c2ccc(OC)cc2)csc1=NN=Cc1ccnc2ccccc12 [3c, 3-Ethyl-4-(4-methoxyphenyl)-2-((quinolin-4-ylmethylene)hydrazineylidene)-2,3-dihydrothiazole] has an IC50 (AChE) of 3.68 ± 0.109 µM and an IC50 (BChE) of over 10 µM.
Molecule CCn1c(-c2ccc(Cl)cc2)csc1=NN=Cc1ccnc2ccccc12 [3f, 4-(4-Chlorophenyl)-3-ethyl-2-((quinolin-4-ylmethylene)hydrazineylidene)-2,3-dihydrothiazole] has an IC50 (AChE) of 4.75 ± 0.098 µM and an IC50 (BChE) of over 10 µM.
Work on CCn1c(-c2ccc(C#N)cc2)csc1=NN=Cc1ccnc2ccccc12 [3g, 4-(3-Ethyl-2-((quinolin-4-ylmethylene)hydrazineylidene)-2,3-dihydrothiazol-4-yl)benzonitrile] yielded an IC50 (AChE) of 9.96 ± 0.208 µM and an IC50 (BChE) of over 10 µM.
